These results are taken from patent publication US12458634B2, “Stabilized liquid formations containing picosulfate” (Ferring B.V., priority 2016, dated 2025).

A short description of this data set: Chemical stability of sodium picosulfate liquid formulations on storage (UPLC/HPLC assay of sodium picosulfate and degradation products). To be noted: for Effect of the anti-oxidant on rate of formation of Picosulfate Benzyl Alcohol: formulations containing sodium picosulfate, magnesium citrate and malic acid; for Effect of the anti-oxidant on initial rate of formation of Picosulfate Benzyl Alcohol, Compound RRT 1.35 and Compound RRT 1.94: formulations containing sodium carboxymethylcellulose and malic acid (Table 14).

The mark [1] stands for this setting: water-insoluble antioxidants (Table 21).
The mark [2] stands for this setting: water-soluble antioxidants (Table 17).

Consider `Cc1cc(C(C)(C)C)c(O)c(C(C)(C)C)c1` [BHT, butylated hydroxytoluene], for which the “Effect of the anti-oxidant on rate of formation of Picosulfate Benzyl Alcohol” value under setting [1] is listed as “effective to reduce the rate of formation”.
`N[C@@H](Cc1c[nH]cn1)C(=O)O` [histidine]: under setting [2], the “Effect of the anti-oxidant on rate of formation of Picosulfate Benzyl Alcohol” value was “effective to reduce the rate of formation”.
Take `O=S([O-])S(=O)(=O)[O-].[K+].[K+]` [potassium metabisulfite]: the “Effect of the anti-oxidant on initial rate of formation of Picosulfate Benzyl Alcohol, Compound RRT 1.35 and Compound RRT 1.94” value was “effective to reduce the initial rate of formation”.
Consider `COc1ccc(O)c(C(C)(C)C)c1` [BHA, butylated hydroxyanisole], for which, under setting [1], the “Effect of the anti-oxidant on rate of formation of Picosulfate Benzyl Alcohol” value is given as “effective to reduce the rate of formation”.
Take `Cc1c(C)c2c(c(C)c1O)CC[C@@](C)(CCC[C@H](C)CCC[C@H](C)CCCC(C)C)O2` [α-tocopherol]: under setting [1], the “Effect of the anti-oxidant on rate of formation of Picosulfate Benzyl Alcohol” value was “effective to reduce the rate of formation”.
For `CCCOC(=O)c1cc(O)c(O)c(O)c1` [propyl gallate], under setting [1], the “Effect of the anti-oxidant on rate of formation of Picosulfate Benzyl Alcohol” value was “effective to reduce the rate of formation”.
As for `O=S([O-])S(=O)(=O)[O-].[Na+].[Na+]` [sodium metabisulfite], the “Effect of the anti-oxidant on initial rate of formation of Picosulfate Benzyl Alcohol, Compound RRT 1.35 and Compound RRT 1.94” value is listed as “effective to reduce the initial rate of formation”. Also, the “Effect of the anti-oxidant on rate of formation of Picosulfate Benzyl Alcohol” value under setting [2] is on record as “effective to reduce the rate of formation”.
